{"source": "patent US7670800B2", "about": "“Process for the purification of riboflavin” (DSM IP Assets B.V., priority 2003, dated 2010)", "key": {"[1]": {"experiment": "Supersaturation / spontaneous crystallisation in fermentation solution (heat flow calorimeter, turbidity sensor; MethB)", "format": "physicochemical", "description": "Within the temperature range of 44° C. to 52° C. the solubility of riboflavin dihydrate and within the temperature range of 44° C. to 59° C. the spontaneous crystallization of riboflavin were investigated. […] In another experiment riboflavin was dissolved at a concentration of 0.7 g l^−1 and at a temperature of 69° C.\nThe experiments were conducted in a heat flow calorimeter. The process of […] by heating and crystallisation by cooling was monitored by a turbidity sensor. 36 mg of crystals of riboflavin anhydrate I or 60 mg of the crystalline form of riboflavin monohydrate or 120 mg of crystals of riboflavin dihydrate, respectively, were suspended in the fermentation solution and heated to 80° C. at a rate of 0.1° C. per minute. The temperature was held during 60 min. Then the system was cooled again to 20° C. at a rate of 0.1° C./min.\nTherefore, another method (MethB) was applied to determine the supersaturation at 39° C.: 420 mg of crystals of riboflavin tetrahydrate were suspended and fully dissolved by heating to 69° C. The concentration of riboflavin was 0.6 mg ml^−1. After cooling again to 39° C., the temperature was kept constant."}, "[2]": {"experiment": "not given", "remark": "listed apart in the source"}, "[3]": {"details": "relative humidity of 95%, samples prepared by method of U.S. Pat. No. 2,603,633", "description": "A process for the preparation of riboflavin tetrahydrate is described in U.S. Pat. No. 2,603,633. The process basically uses a solvent to rapidly precipitate the riboflavin in order to obtain the desired tetrahydrate “type C” (modification)."}, "[4]": {"experiment": "Soluble fraction of riboflavin in induced and uninduced cultures", "format": "physicochemical", "details": "fermentation culture induced with seed crystals", "description": "500 mg of crystals of riboflavin monohydrate were sterilized at 140° C. for 50 min in an oven, suspended in 5 ml ethanol for 10-200 min, preferably 20-40 min and prior induction 10 ml sterile H2O were added for better handling of the liquid. The suspension was added to the bioreactor after 6 h by a sterile bottle with needle. Crystals of riboflavin dihydrate were formed and in the culture remained monoseptic. From these experiments, it can be concluded that it is possible to direct the crystal modification to riboflavin dihydrate.\nIn case of the induced cultures this phenomenon is not observed. The solubility of riboflavin (approximately 0.4 gl^−1) is not exceeded. It is controlled by x-ray diffraction whether the crystalline form of the crystals changes during the sterilization procedure."}}}
{"smiles": "Cc1cc2nc3c(=O)[nH]c(=O)nc-3n(C[C@H](O)[C@H](O)[C@H](O)CO)c2cc1C", "note": "[riboflavin anhydrate I, reference compound]", "values": [{"measurement": "position of the supersaturation line", "setting": "[1]; 39° C., estimated", "value": "above 0.6 g l^−1"}, {"measurement": "partial transformation into riboflavin dihydrate", "setting": "stirred slurry only containing riboflavin anhydrate I, 4° C., in 56 days", "value": 80, "unit": "%"}]}
{"smiles": "Cc1cc2nc3c(=O)[nH]c(=O)nc-3n(C[C@H](O)[C@H](O)[C@H](O)CO)c2cc1C", "note": "[riboflavin anhydrate III]", "values": [{"measurement": "range of relative humidity in which the crystalline form was identified", "setting": "[2]; second sample (type C), DVS", "value": 0, "unit": "% < RH % RH"}]}
{"smiles": "Cc1cc2nc3c(=O)[nH]c(=O)nc-3n(C[C@H](O)[C@H](O)[C@H](O)CO)c2cc1C", "note": "[riboflavin anhydrate II]", "values": [{"measurement": "range of relative humidity at which the crystalline form appeared", "setting": "[2]; sample modification B/C, DVS with parallel X-ray diffraction, ambient temperature", "value": 0, "unit": "% RH"}]}
{"smiles": "Cc1cc2nc3c(=O)[nH]c(=O)nc-3n(C[C@H](O)[C@H](O)[C@H](O)CO)c2cc1C", "note": "[riboflavin dihydrate]", "values": [{"measurement": "time for complete transformation into riboflavin anhydrate I", "setting": "80° C.", "value": "≤ 20", "unit": "s"}, {"measurement": "partial transformation into riboflavin anhydrate I", "setting": "stirred slurry of pure riboflavin dihydrate, 23° C., in 11 days, Raman spectroscopy", "value": 80, "unit": "%"}, {"measurement": "water contained in the dihydrate structure", "setting": "[2]; relative humidity of 20%, decreasing RH", "value": "about 1.3 mol water per mol riboflavin"}, {"measurement": "water uptake", "setting": "[2]; relative humidity of about 92%, increasing RH, ambient temperature, sample B/C", "value": 9.57, "unit": "wt.-%"}]}
{"smiles": "Cc1cc2nc3c(=O)[nH]c(=O)nc-3n(C[C@H](O)[C@H](O)[C@H](O)CO)c2cc1C.O.O.O.O", "note": "[riboflavin tetrahydrate]", "values": [{"measurement": "time until crystallisation started", "setting": "[1]; 0.6 mg ml^−1 riboflavin, dissolved at 69° C., cooled to and kept at 39° C.", "value": 3, "unit": "h"}, {"measurement": "temperature of spontaneous crystallisation", "setting": "[1]; 0.7 mg ml^−1, dissolved at 69° C., cooling", "value": 46, "unit": "°C"}, {"measurement": "time to transform into riboflavin dihydrate", "setting": "[3]", "value": "about 100 min"}]}
{"smiles": "Cc1cc2nc3c(=O)[nH]c(=O)nc-3n(C[C@H](O)[C@H](O)[C@H](O)CO)c2cc1C", "note": "[riboflavin]", "values": [{"measurement": "supersaturation line", "setting": "[1]; 39° C., MethB, concluded from the experiments", "value": "below 0.6 mg ml^−1"}, {"measurement": "solubility of riboflavin", "setting": "[4]", "value": "approximately 0.4 gl^−1"}]}
